Assay results taken from patent US9809623B2, “α4β7 peptide monomer and dimer antagonists” (Protagonist Therapeutics, Inc., priority 2014, dated 2017).
Numbered stars: 1 amine (or outer) side, 2 acyl side, 3 side chain; on linkers, the order of the positions; unused ones are H or OH. Bridge positions count the residues as written; N and C are the ends. Square brackets hold non-standard residues; d marks the D form. Peptide text beside a SMILES is read from it. I, II: the chains in the order shown. ξ: configuration not given here. Phe(4-tBu) = CC(C)(C)c1ccc(C[C@H](N)C(=O)O)cc1; Diglycolyl = O=C(COCC(=O)[*:2])[*:1]; NMeR = CN[C@@H](CCCNC(=N)N)C(=O)O; β3hE = N[C@@H](CCC(=O)O)CC(=O)O; Thr(3ξ) = CC(O)[C@H](N)C(=O)O; Pen = CC(C)(S)[C@H](N)C(=O)O

Assays:
α4β1 = α4β1 (Homo sapiens, UniProt P05556+P13612); assay: PBMC Memory T Cell Adhesion Assay, adhesion to VCAM-1; assay type: cell-based; conditions: memory T cells isolated from human PBMC donors; read-out: IC50 (nM), memory T cells, Integrin α4β1, Ligand VCAM-1
Protocol: Fresh CD4+/CD45RO+ memory T cells were isolated from human peripheral blood mononuclear cell (PBMC) donors by Aragen Bioscience Inc. (Morgan Hill, Calif.). The assay plate was prepared using IgG Fc capture antibody (donkey anti human) immobilized at 500 ng/well in 50 mM sodium bicarbonate buffer, pH 9.5, ON, 4C onto a Greiner Fluotrac plate (100 ul per well). The plate was rinsed two time with Blocking Buffer (25 mM Tris HCl, pH7.5, 150 mM NaCl, 1.5% BSA, 0.05% Tween), and blocked with Blocking Buffer for 2 hours at 37 C or 5 hours at RT using 200 ul per well. The Blocking Buffer was removed and either MAdCAM-1 or VCAM-1 at 400 ng/well in Blocking Buffer was added and the plate incubated overnight at 4C (100 ul per well). The plate was washed two times with Blocking Buffer, and rinsed once with 200 ul Binding Media (DMEM phenol red free, 10 mM HEPES, 1×Na pyruvate, 1× Glutamine, and supplemented with 1 mM MnCl2 prior to use). To prepare cells, approximately 25 million CD4+/CD45RO+ memory T cells were counted by trypan blue exclusion using a haemocytometer to determine viability and cell count. […] Fluorescence intensity was measured using a Molecular Devices Gemini EM Fluorescent Plate Reader (Ex 485/Em530, Bottom Read, Reading Sensitivity=20). IC50 curves are generated using Graph Pad Prism and the curves analyzed using analyzed using a non-linear regression (four parameters) algorithm. […]

FIG. 5 = assay: FIG. 5
Description: Table printed on a drawing sheet, FIG. 5
Footnotes: SIF- simulated intestinal fluid (porcine) / RIW- rat intestinal wash / HIF- human intestinal fluid / CW- colonic wash (rat) / IMH- intestinal mucosal homogenate (rat) / CMG- colonic mucosal homogenate (rat) / SGF- simulated gastric fluid (porcine) / Hu S9- human intestinal S9 fraction / RL S9- rat liver S9
First reader's note: The first column is printed empty in all rows, so no substance name appears on the sheet; the column head reads CMH while the legend prints CMG.

α4β7 receptor = assay: 7 day oral study, FACS receptor occupancy, α4β7 expression and circulating T cells; assay type: in vivo, cynomolgus monkey
Protocol: In certain embodiments for FACS analysis, heparinized whole blood from animals *e.g., cyanos) is stained with each of two panels of antibodies to evaluate (1) the extent of α4β7 receptor occupancy in samples treated with a peptide dimer compound or peptide monomer compound described herein; and (2) the abundance of circulating α4β7+, αEβ7+, and α4β7+αEβ7+ lymphocyte subsets. Receptor occupancy and integrin expression are assessed within memory CD4 T cells, naïve CD4 T cells, and B cells. To evaluate receptor occupancy, whole blood samples are first treated with 1 mM MnCl2 to allow peptide binding, and then pre-incubated+/−1 uM unlabeled peptide to fully occupy (i.e., block) the α4β7 receptor. Blocked and unblocked samples were stained with 1 nM Alexa 647-labeled peptide, followed by staining with antibodies against α4β7, CD45, CD4, CD45RA, and CD19. Samples are processed to lyse erythrocytes and fix leukocytes, followed by staining with a second-step reagent (streptavidin-BV421) and wash steps. To assess integrin expression and cell subset abundance, whole blood samples are stained with antibodies against α4, β7, and αE, in addition to antibodies against CD45, CD4, CD45RA, and CD19. Samples are processed to lyse erythrocytes and fix leukocytes, followed by staining with a second-step reagent (streptavidin-BV421) and wash steps. The stained samples are analyzed by flow cytometry, collecting a constant sample volume to allow calculation of absolute cell counts.
To further evaluate the in vivo properties of Peptide X in a higher species, cynomolgus monkeys were dosed with Peptide X for 7 days. Dosing was oral (nasogastric intubation) once daily. Whole blood (about 3.5 mL) was collected on Day 0 (prior to dosing) and Day 6 (1 hour post the last dose) for PK and PD analysis. On Day 6, blood was also collected from a non-dosed animal. For PD, FACS analysis was used to measure receptor occupancy, down-regulation of α4β7 expression and circulating levels of T cells expressing the integrin α4β7.
For FACS analysis, heparinized whole blood from the cynos was stained with each of two panels of antibodies to evaluate (1) the extent of α4β7 receptor occupancy in Peptide X-treated samples and (2) the abundance of circulating α4β7+, αEβ7+, and α4β7+αEβ7+ lymphocyte subsets. Receptor occupancy and integrin expression were assessed within memory CD4 T cells, naïve CD4 T cells, and B cells. To evaluate receptor occupancy, whole blood samples were first treated with 1 mM MnCl2 to allow Peptide X binding, and then pre-incubated+/−1 uM unlabeled Peptide X to fully occupy (i.e., block) the α4β7 receptor. […] All stained samples were analyzed by flow cytometry, collecting a constant sample volume to allow calculation of absolute cell counts.

[1] = PK studies in normal or DSS treated mice and rats, oral dosing; assay type: in vivo

α4β1, sequence (P13612 34-1032): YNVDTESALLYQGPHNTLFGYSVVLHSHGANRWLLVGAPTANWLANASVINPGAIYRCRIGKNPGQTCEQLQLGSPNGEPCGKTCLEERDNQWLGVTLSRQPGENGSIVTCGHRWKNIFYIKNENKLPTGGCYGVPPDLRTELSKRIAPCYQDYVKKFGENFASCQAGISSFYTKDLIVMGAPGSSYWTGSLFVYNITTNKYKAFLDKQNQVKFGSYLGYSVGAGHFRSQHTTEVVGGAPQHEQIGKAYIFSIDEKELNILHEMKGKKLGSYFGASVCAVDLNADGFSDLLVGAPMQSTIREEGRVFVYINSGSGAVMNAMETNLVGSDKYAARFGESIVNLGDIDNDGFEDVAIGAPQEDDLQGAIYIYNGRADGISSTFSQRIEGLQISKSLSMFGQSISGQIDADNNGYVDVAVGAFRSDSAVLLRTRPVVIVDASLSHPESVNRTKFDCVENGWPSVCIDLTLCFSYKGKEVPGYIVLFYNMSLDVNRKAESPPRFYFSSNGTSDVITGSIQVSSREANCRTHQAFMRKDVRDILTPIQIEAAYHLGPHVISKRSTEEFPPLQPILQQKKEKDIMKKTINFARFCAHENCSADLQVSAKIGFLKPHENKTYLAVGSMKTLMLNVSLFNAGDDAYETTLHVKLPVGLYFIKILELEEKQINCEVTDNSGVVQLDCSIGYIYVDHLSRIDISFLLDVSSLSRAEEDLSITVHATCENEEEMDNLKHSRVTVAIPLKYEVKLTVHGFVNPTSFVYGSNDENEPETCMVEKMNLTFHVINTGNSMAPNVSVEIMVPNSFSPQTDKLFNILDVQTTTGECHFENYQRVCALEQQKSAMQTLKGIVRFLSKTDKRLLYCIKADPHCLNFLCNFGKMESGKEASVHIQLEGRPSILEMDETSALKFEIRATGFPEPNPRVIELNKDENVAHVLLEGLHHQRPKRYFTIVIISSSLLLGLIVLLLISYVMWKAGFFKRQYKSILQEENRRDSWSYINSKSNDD
α4β1, sequence (P05556 21-798): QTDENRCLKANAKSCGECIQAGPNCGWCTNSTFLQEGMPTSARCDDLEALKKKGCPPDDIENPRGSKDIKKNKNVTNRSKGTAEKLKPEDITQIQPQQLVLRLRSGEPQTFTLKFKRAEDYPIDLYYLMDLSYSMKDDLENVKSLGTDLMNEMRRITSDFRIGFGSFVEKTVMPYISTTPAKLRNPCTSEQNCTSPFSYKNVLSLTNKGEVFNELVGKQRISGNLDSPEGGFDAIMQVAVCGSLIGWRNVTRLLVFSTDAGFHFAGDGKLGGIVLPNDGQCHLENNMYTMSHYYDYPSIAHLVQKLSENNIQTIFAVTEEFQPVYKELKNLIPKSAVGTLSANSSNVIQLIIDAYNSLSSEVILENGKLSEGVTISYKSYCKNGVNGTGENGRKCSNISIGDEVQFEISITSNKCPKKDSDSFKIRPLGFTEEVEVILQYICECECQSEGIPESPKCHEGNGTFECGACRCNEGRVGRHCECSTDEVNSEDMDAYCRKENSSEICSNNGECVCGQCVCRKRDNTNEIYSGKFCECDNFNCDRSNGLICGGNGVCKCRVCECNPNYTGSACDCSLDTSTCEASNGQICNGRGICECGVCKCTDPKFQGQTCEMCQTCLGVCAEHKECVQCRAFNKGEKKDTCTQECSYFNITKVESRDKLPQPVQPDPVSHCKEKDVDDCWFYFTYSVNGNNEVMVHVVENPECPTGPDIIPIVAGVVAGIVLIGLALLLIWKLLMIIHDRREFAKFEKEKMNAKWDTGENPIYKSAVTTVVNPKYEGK

SMILES: CC(=O)N[C@@H]1C(=O)N(C)[C@@H](CCCNC(=N)N)C(=O)N[C@@H](CO)C(=O)N[C@@H](CC(=O)O)C(=O)N[C@@H](C(C)O)C(=O)N[C@@H](CC(C)C)C(=O)N[C@H](C(=O)N[C@@H](Cc2ccc(C(C)(C)C)cc2)C(=O)N[C@@H](CCC(=O)O)CC(=O)N[C@H](CCCCNC(=O)COCC(=O)NCCCC[C@@H](NC(=O)C[C@H](CCC(=O)O)NC(=O)[C@H](Cc2ccc(C(C)(C)C)cc2)NC(=O)[C@H]2NC(=O)[C@H](CC(C)C)NC(=O)[C@H](C(C)O)NC(=O)[C@H](CC(=O)O)NC(=O)[C@H](CO)NC(=O)[C@H](CCCNC(=N)N)N(C)C(=O)[C@@H](NC(C)=O)C(C)(C)SSC2(C)C)C(N)=O)C(N)=O)C(C)(C)SSC1(C)C (stereo partly drawn) [Peptide X, [Ac-Pen-(N-Me-Arg)-Ser-Asp-Thr-Leu-Pen-(Phe(4-tBu))-(β-homoGlu)-(D-Lys)]2-DIG] (I: Ac-[Pen][NMeR]SD[Thr(3ξ)]L[Pen][Phe(4-tBu)][β3hE][dK]-NH2 / II: Ac-[Pen][NMeR]SD[Thr(3ξ)]L[Pen][Phe(4-tBu)][β3hE][dK]-NH2; disulfide I:1-I:7, II:1-II:7; linker I:10-II:10 via Diglycolyl)
- IC50 (α4β1): > 100000 nM
- Intestinal half-life | CMH (FIG. 5): >6 h
- Intestinal half-life | CW (FIG. 5): >6 h
- Intestinal half-life | HIF (FIG. 5): >24 h
- Intestinal half-life | IMH (FIG. 5): >6 h
- Intestinal half-life | SIF (FIG. 5): 11 h
- Metabolism | Hu S9 (FIG. 5): >6 h
- Metabolism | RL S9 (FIG. 5): >6 h
- α4β7 expression on CD4 memory T cells (α4β7 receptor; all doses, Day 6 vs Day 0): decreased at all doses
- EC50 (α4β7 receptor; by extrapolation, estimated, read-out: plasma concentration sufficient to occupy 50% of the α4β7 receptors in the blood): ~0.35 nM
- percentage of α4β7+ memory T cells normalized to total CD4 cells (α4β7 receptor; cyno blood): increase
- percent receptor occupancy in blood (α4β7 receptor; highest dose (75 mg/kg/day), oral once daily 7 days, CD4 memory α4β7+ T cells): exceeded 90%
- levels in the blood and urine after oral dosing [1]: no significant measurable levels in the blood and urine
